Tests used:
Test in all cases: relative viability (nuclei count vs DMSO), 5 days (fraction); higher = more cells survive
[1] = compound: CS(=O)(=O)c1ccc(-c2cnc(N)c(C(=O)Nc3ccccc3)n2)cc1 [VE-821] + Cc1cc(Nc2cc(N3CCN(C)CC3)nc(Sc3ccc(NC(=O)C4CC4)cc3)n2)n[nH]1 [Tozasertib] (partner 0.1 µM)
Outline: (§1)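 Medians of duplicate plates are given as relative viability. That measure is the nuclei count in treated wells divided by the count in vehicle wells. Counts were taken on 4× images of lung cancer cell lines in 1536-well plates, 5 days after pin-tool dosing the day after seeding with one drug alone or a fixed anchor-drug dose plus five library-drug doses (not always all listed) in √10 steps.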

[2] = compound: CS(=O)(=O)c1ccc(C(=O)Nc2ccc(Cl)c(-c3ccccn3)c2)c(Cl)c1 [Vismodegib] + CCNC(=O)c1noc(-c2cc(C(C)C)c(O)cc2O)c1-c1ccc(CN2CCOCC2)cc1 [Luminespib] (partner 0.01 µM)
Outline: as §1

[3] = compound: CS(=O)(=O)c1ccc(C(=O)Nc2ccc(Cl)c(-c3ccccn3)c2)c(Cl)c1 [Vismodegib] + Cc1cc(Nc2cc(N3CCN(C)CC3)nc(Sc3ccc(NC(=O)C4CC4)cc3)n2)n[nH]1 [Tozasertib] (partner 0.1 µM)
Outline: as §1

[4] = compound: N#CC[C@H](C1CCCC1)n1cc(-c2ncnc3[nH]ccc23)cn1 [Ruxolitinib] + NC(=O)Nc1cc(-c2cccc(F)c2)sc1C(=O)N[C@H]1CCCNC1 [AZD7762] (partner 0.2 µM)
Outline: as §1

Cell Line	relative viability ([1]; first compound 0.08 µM)	relative viability ([1]; first compound 0.253 µM)	relative viability ([1]; first compound 0.8 µM)	relative viability ([1]; first compound 2.53 µM)	relative viability ([1]; first compound 8 µM)	relative viability ([2]; first compound 0.08 µM)	relative viability ([2]; first compound 0.253 µM)	relative viability ([2]; first compound 0.8 µM)	relative viability ([2]; first compound 2.53 µM)	relative viability ([2]; first compound 8 µM)	relative viability ([3]; first compound 0.08 µM)	relative viability ([3]; first compound 0.253 µM)	relative viability ([3]; first compound 0.8 µM)	relative viability ([3]; first compound 2.53 µM)	relative viability ([3]; first compound 8 µM)	relative viability ([4]; first compound 0.08 µM)	relative viability ([4]; first compound 0.253 µM)	relative viability ([4]; first compound 0.8 µM)	relative viability ([4]; first compound 2.53 µM)	relative viability ([4]; first compound 8 µM)
NCI-H1666	0.625	0.684	0.646	0.644	0.603	0.985	0.986	1.15	0.999	1.06	0.564	0.684	0.591	0.585	0.7	0.869	0.868	0.921	0.841	0.974
EPLC-272H	0.363	0.26	0.374	0.211	0.154	0.298	0.224	0.263	0.235	0.442	0.254	0.273	0.34	0.348	0.148	0.321	0.267	0.244	0.285	0.316
NCI-H838	0.284	0.25	0.2	0.212	0.215	0.247	0.271	0.33	0.409	0.331	0.263	0.276	0.263	0.283	0.29	0.925	0.874	0.87	0.776	0.721
NCI-H2087	0.241	0.204	0.248	0.212	0.198	0.171	0.192	0.172	0.203	0.209	0.258	0.306	0.212	0.185	0.234	1.19		1.39	1.21	0.956
LC-2-ad	0.427	0.597	0.504	0.565	0.426	1.01	0.957	0.975	0.955	1.06	0.504	0.545	0.427	0.434	0.462	0.875	0.865	0.821	0.792	0.693
NCI-H2405	0.824	0.714	0.713	0.726	0.742	0.735	0.691	0.706	0.686	0.686	0.705	0.733	0.7	0.709	0.765	0.738	0.792	0.818	0.488	0.416
HCC-366	0.0768	0.0713	0.0434	0.0568	0.0298						0.11	0.106	0.0997	0.0832	0.0622	0.286	0.253	0.262	0.166	0.246
NCI-H3122	0.389	0.383	0.369	0.418	0.306	0.109	0.088	0.0658	0.073	0.0765	0.399	0.382	0.343	0.384	0.373	0.98	1.07	1.05	0.943	0.891
LU99A	0.264	0.299	0.277	0.24	0.227	0.257	0.233	0.323	0.257	0.305	0.301	0.248	0.239	0.268	0.269	0.336	0.402	0.394	0.406	0.477
NCI-H1650	0.457	0.416	0.278	0.299	0.208	0.214	0.192	0.212	0.178	0.18	0.413	0.365	0.315	0.286	0.34					
EMC-BAC-2	0.344	0.306	0.322	0.253	0.277	1.14	1.07	1.22	1.12	1.21	0.281	0.284	0.288	0.292	0.316	1.07	1.03	1.3	1.08	0.695
HCC-78	0.461	0.362	0.385	0.372	0.321						0.352	0.454	0.502	0.304	0.41	0.695	0.484	0.481	0.631	0.628
NCI-H1734	0.292	0.245	0.235	0.24	0.226	0.19	0.186	0.166	0.198	0.189	0.249	0.281	0.267	0.263	0.263	0.638	0.629	0.662	0.54	0.602
COR-L23	0.195	0.168	0.131	0.142	0.14	0.672	0.779	0.586	0.675	0.75	0.203	0.218	0.181	0.177	0.168					
RERF-LC-KJ	0.539	0.478	0.483	0.349	0.274	1.18	1.21	1.16	1.24	1.22	0.495	0.532	0.413	0.506	0.449	0.949		1	0.98	1.01
NCI-H1437	0.437	0.401	0.368	0.421	0.408	0.956	1.13	1.1	1.09	1.07	0.395	0.398	0.396	0.38	0.392	1.18	1.11	1.19	1.04	0.925
NCI-H1915	0.472	0.45	0.341	0.35	0.303	0.759	0.758	0.785	0.837	0.769	0.431	0.386	0.466	0.413	0.414	0.687	0.681	0.753	0.572	0.593

From the supplement of paper PMC10307832
